Laboratory results taken from patent US20260042731A1, “(2,4-DICHLOROPHENOXY)ACETIC ACID ANALOGS” (CORTEVA AGRISCIENCE LLC, priority 2022, published 2026).
Read-outs that look alike come from different tables or passages of the source.

What was measured:
[1] = system: Amaranthus rudis (AMATA), tall water hemp; test: Postemergence herbicide evaluation, growth of Amaranthus rudis (AMATA); assay type: in vivo; conditions: Amaranthus tuberculatus, post-emergence, percent reduction in plant size relative to untreated control, read-out: Ave. AMATA; for pest or weed control at 280 g/ha: 280 g ae/ha; for pest or weed control at 560 g/ha: 560 g ae/ha
[2] = system: Ambrosia artemisiifolia (AMBEL), common ragweed; test: Postemergence herbicide evaluation, growth of Ambrosia artemisiifolia (AMBEL); assay type: in vivo; conditions: Ambrosia artemisiifolia, post-emergence, percent reduction in plant size relative to untreated control, read-out: AVE. AMBEL; for pest or weed control at 280 g/ha: 280 g ae/ha; for pest or weed control at 560 g/ha: 560 g ae/ha
[3] = system: Abutilon theophrasti (ABUTH), velvetleaf; test: Postemergence herbicide evaluation, growth of Abutilon theophrasti (ABUTH); assay type: in vivo; conditions: Abutilon theophrasti, post-emergence, percent reduction in plant size relative to untreated control, read-out: AVE. ABUTH; for pest or weed control at 280 g/ha: 280 g ae/ha; for pest or weed control at 560 g/ha: 560 g ae/ha
[4] = system: Chenopodium album (CHEAL), common lambsquarters; test: Postemergence herbicide evaluation, growth of Chenopodium album (CHEAL); assay type: in vivo; conditions: Chenopodium album, post-emergence, percent reduction in plant size relative to untreated control, read-out: Ave. CHEAL; for pest or weed control at 280 g/ha: 280 g ae/ha; for pest or weed control at 560 g/ha: 560 g ae/ha
[5] = system: glyphosate resistant Conyza canadensis (L.) (ERICA), horseweed; test: Postemergence herbicide evaluation, growth of Conyza canadensis (ERICA); assay type: in vivo; conditions: Erigeron canadensis, post-emergence, percent reduction in plant size relative to untreated control, read-out: Ave. ERICA; for pest or weed control at 280 g/ha: 280 g ae/ha; for pest or weed control at 560 g/ha: 560 g ae/ha
[6] = Volatility of compounds measured by thermogravimetric analysis (TGA); assay type: physicochemical
[7] = system: weeds (ABUTH, AMATA, AMBEL, CHEAL, ERICA); test: Postemergence herbicide evaluation, overall average % weed control across ABUTH, AMATA, AMBEL, CHEAL, ERICA; assay type: in vivo; conditions: post-emergence, average over the five weeds, read-out: Overall Ave % Weed Control; for pest or weed control at 280 g/ha: 280 g ae/ha; for pest or weed control at 560 g/ha: 560 g ae/ha

Row | Structure (SMILES) | pest or weed control at 280 g/ha ([1]; 168 h, 7 DAA) [%] | pest or weed control at 560 g/ha ([1]; 168 h, 7 DAA) [%] | pest or weed control at 280 g/ha ([1]; 336 h, 14 DAA) [%] | pest or weed control at 560 g/ha ([1]; 336 h, 14 DAA) [%] | pest or weed control at 280 g/ha ([1]; 504 h, 21 DAA) [%] | pest or weed control at 560 g/ha ([1]; 504 h, 21 DAA) [%] | pest or weed control at 280 g/ha ([2]; 168 h, 7 DAA) [%] | pest or weed control at 560 g/ha ([2]; 168 h, 7 DAA) [%] | pest or weed control at 280 g/ha ([2]; 336 h, 14 DAA) [%] | pest or weed control at 560 g/ha ([2]; 336 h, 14 DAA) [%] | pest or weed control at 280 g/ha ([2]; 504 h, 21 DAA) [%] | pest or weed control at 560 g/ha ([2]; 504 h, 21 DAA) [%] | pest or weed control at 280 g/ha ([3]; 168 h, 7 DAA) [%] | pest or weed control at 560 g/ha ([3]; 168 h, 7 DAA) [%] | pest or weed control at 280 g/ha ([3]; 336 h, 14 DAA) [%] | pest or weed control at 560 g/ha ([3]; 336 h, 14 DAA) [%] | pest or weed control at 280 g/ha ([3]; 504 h, 21 DAA) [%] | pest or weed control at 560 g/ha ([3]; 504 h, 21 DAA) [%] | pest or weed control at 280 g/ha ([4]; 168 h, 7 DAA) [%] | pest or weed control at 560 g/ha ([4]; 168 h, 7 DAA) [%] | other results
1 | C/C(N)=N/OC(=O)COc1ccc(Cl)cc1Cl [Compound A12, N′-(2-(2,4-Dichlorophenoxy)acetoxy)acetimidamide] | 75 | 78 | 97 | 83 | 86 | 88 | 65 | 75 | 83 | 96 | 97 | 99 | 85 | 93 | 90 | 97 | 96 | 99 | 68 | 68 | pest or weed control at 280 g/ha ([4]; 336 h, 14 DAA): 80%; pest or weed control at 560 g/ha ([4]; 336 h, 14 DAA): 78%; pest or weed control at 280 g/ha ([4]; 504 h, 21 DAA): 86%; pest or weed control at 560 g/ha ([4]; 504 h, 21 DAA): 80%; pest or weed control at 280 g/ha ([5]; 168 h, 7 DAA): 65%; pest or weed control at 560 g/ha ([5]; 168 h, 7 DAA): 68%; pest or weed control at 280 g/ha ([5]; 336 h, 14 DAA): 90%; pest or weed control at 560 g/ha ([5]; 336 h, 14 DAA): 91%; pest or weed control at 280 g/ha ([5]; 504 h, 21 DAA): 99%; pest or weed control at 560 g/ha ([5]; 504 h, 21 DAA): 97%; TGA Data (rate of weight loss, volatility) [6]: 5.8 µg/min; pest or weed control at 280 g/ha ([7]; 168 h, 7 DAA): 72%; pest or weed control at 560 g/ha ([7]; 168 h, 7 DAA): 76%; pest or weed control at 280 g/ha ([7]; 336 h, 14 DAA): 88%; pest or weed control at 560 g/ha ([7]; 336 h, 14 DAA): 89%; pest or weed control at 280 g/ha ([7]; 504 h, 21 DAA): 93%; pest or weed control at 560 g/ha ([7]; 504 h, 21 DAA): 92%
2 | O=C(Cc1ccccc1)NOC(=O)COc1ccc(Cl)cc1Cl [Compound A13, N-(2-(2,4-dichlorophenoxy)acetoxy)-2-phenylacetamide] | 75 | 70 | 80 | 74 | 91 | 70 | 65 | 70 | 85 | 94 | 90 | 97 | 68 | 80 | 70 | 85 | 75 | 93 | 68 | 65 | pest or weed control at 280 g/ha ([4]; 336 h, 14 DAA): 68%; pest or weed control at 560 g/ha ([4]; 336 h, 14 DAA): 78%; pest or weed control at 280 g/ha ([4]; 504 h, 21 DAA): 73%; pest or weed control at 560 g/ha ([4]; 504 h, 21 DAA): 91%; pest or weed control at 280 g/ha ([5]; 168 h, 7 DAA): 60%; pest or weed control at 560 g/ha ([5]; 168 h, 7 DAA): 65%; pest or weed control at 280 g/ha ([5]; 336 h, 14 DAA): 78%; pest or weed control at 560 g/ha ([5]; 336 h, 14 DAA): 97%; pest or weed control at 280 g/ha ([5]; 504 h, 21 DAA): 83%; pest or weed control at 560 g/ha ([5]; 504 h, 21 DAA): 99%; TGA Data (rate of weight loss, volatility) [6]: 1.2 µg/min; pest or weed control at 280 g/ha ([7]; 168 h, 7 DAA): 67%; pest or weed control at 560 g/ha ([7]; 168 h, 7 DAA): 70%; pest or weed control at 280 g/ha ([7]; 336 h, 14 DAA): 76%; pest or weed control at 560 g/ha ([7]; 336 h, 14 DAA): 85%; pest or weed control at 280 g/ha ([7]; 504 h, 21 DAA): 82%; pest or weed control at 560 g/ha ([7]; 504 h, 21 DAA): 90%
3 | O=C(COc1ccc(Cl)cc1Cl)ON(Cc1ccccc1)Cc1ccccc1 [Compound A14, N, N-Dibenzyl-O-(2-(2,4-dichlorophenoxy)acetyl)hydroxylamine] | 63 | 55 | 50 | 48 | 53 | 43 | 50 | 40 | 63 | 50 | 58 | 33 | 38 | 28 | 23 | 20 | 13 | 15 | 60 | 58 | pest or weed control at 280 g/ha ([4]; 336 h, 14 DAA): 68%; pest or weed control at 560 g/ha ([4]; 336 h, 14 DAA): 63%; pest or weed control at 280 g/ha ([4]; 504 h, 21 DAA): 70%; pest or weed control at 560 g/ha ([4]; 504 h, 21 DAA): 63%; pest or weed control at 280 g/ha ([5]; 168 h, 7 DAA): 43%; pest or weed control at 560 g/ha ([5]; 168 h, 7 DAA): 40%; pest or weed control at 280 g/ha ([5]; 336 h, 14 DAA): 50%; pest or weed control at 560 g/ha ([5]; 336 h, 14 DAA): 50%; pest or weed control at 280 g/ha ([5]; 504 h, 21 DAA): 43%; pest or weed control at 560 g/ha ([5]; 504 h, 21 DAA): 40%; TGA Data (rate of weight loss, volatility) ([6]; 70° C.): 0.4 (70° C.) μg/min; pest or weed control at 280 g/ha ([7]; 168 h, 7 DAA): 51%; pest or weed control at 560 g/ha ([7]; 168 h, 7 DAA): 44%; pest or weed control at 280 g/ha ([7]; 336 h, 14 DAA): 51%; pest or weed control at 560 g/ha ([7]; 336 h, 14 DAA): 46%; pest or weed control at 280 g/ha ([7]; 504 h, 21 DAA): 47%; pest or weed control at 560 g/ha ([7]; 504 h, 21 DAA): 39%
